Results reported in patent US20200147243A1, “LIGAND COMPOUND OF ALPHA7 NICOTINIC ACETYLCHOLINE RECEPTOR AND APPLICATION THEREOF” (BEIJING NORMAL UNIVERSITY, priority 2017, published 2020).
Read-outs that look alike come from different tables or passages of the source. Values belong to the compound of their own block, whether it stands above or below them.

Legend:
hERG potassium channel [1] = biological target: T1, hERG potassium channel (Homo sapiens, UniProt Q12809); experiment: in vitro
α7 nAChRs = α7 nAChRs (Rattus norvegicus, UniProt Q05941); experiment: In vitro competitive binding experiment with [125I] α-bgt as radioactive standard; set-up: species or system SD rats; conditions: 0.4 nM [125I] α-bgt, Cheng-Prusoff, mean of three measurements ± SD; read-out: Ki (nM), in vitro binding affinity to α7 nAChRs
Sequence of α7 nAChRs (Q05941 23-502): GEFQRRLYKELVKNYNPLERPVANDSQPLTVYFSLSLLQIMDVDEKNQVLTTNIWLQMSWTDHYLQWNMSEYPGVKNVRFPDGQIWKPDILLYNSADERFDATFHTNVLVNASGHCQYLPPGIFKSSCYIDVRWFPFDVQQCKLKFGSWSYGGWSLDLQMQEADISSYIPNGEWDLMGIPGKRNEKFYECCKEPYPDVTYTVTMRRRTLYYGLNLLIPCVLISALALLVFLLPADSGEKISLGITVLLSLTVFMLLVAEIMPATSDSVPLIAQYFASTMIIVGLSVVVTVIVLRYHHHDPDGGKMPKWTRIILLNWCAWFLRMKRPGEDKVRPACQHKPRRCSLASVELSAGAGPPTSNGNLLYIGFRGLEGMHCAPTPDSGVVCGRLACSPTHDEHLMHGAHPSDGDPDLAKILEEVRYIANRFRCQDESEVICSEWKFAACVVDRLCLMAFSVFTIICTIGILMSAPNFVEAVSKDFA

hERG potassium channel [2] = biological target: T1, hERG potassium channel; experiment: In vitro hERG potassium channel inhibition experiment (conventional patch clamp, HEK293 cell line stably expressing hERG)
hERG potassium channel [3] = biological target: T1, hERG potassium channel
Kunming mice = experiment: Measurement of half lethal dosage LD50 (tail vein injection); assay type: in vivo; conditions: for Death Rate (%): tail vein
Excerpt: (§1) There are many methods for calculating LD50, among which the weighted probit method created by Bliss and then developed by later researchers was the most accurate and rigorous, and was the standard LD50 calculation method recognized by researchers. This calculation method will be used herein to solve the LD50 value of the compound to be measured to the mice.

[4] = as above; assay type: in vivo, Kunming mice; conditions: both sexes, Kunming, mouse, in vivo, intravenous, mice, tail vein injection
Excerpt: as §1

[5] = 5 min after administration; cited from earlier work
[6] = 5 min after the administration, cited from earlier work
[7] = IC50 (μM), hERG potassium current, Table 7 and text, n=3
[8] = hERG Potassium Channel IC50 (nM), Table 8

T1 sequence (Q12809 whole entry): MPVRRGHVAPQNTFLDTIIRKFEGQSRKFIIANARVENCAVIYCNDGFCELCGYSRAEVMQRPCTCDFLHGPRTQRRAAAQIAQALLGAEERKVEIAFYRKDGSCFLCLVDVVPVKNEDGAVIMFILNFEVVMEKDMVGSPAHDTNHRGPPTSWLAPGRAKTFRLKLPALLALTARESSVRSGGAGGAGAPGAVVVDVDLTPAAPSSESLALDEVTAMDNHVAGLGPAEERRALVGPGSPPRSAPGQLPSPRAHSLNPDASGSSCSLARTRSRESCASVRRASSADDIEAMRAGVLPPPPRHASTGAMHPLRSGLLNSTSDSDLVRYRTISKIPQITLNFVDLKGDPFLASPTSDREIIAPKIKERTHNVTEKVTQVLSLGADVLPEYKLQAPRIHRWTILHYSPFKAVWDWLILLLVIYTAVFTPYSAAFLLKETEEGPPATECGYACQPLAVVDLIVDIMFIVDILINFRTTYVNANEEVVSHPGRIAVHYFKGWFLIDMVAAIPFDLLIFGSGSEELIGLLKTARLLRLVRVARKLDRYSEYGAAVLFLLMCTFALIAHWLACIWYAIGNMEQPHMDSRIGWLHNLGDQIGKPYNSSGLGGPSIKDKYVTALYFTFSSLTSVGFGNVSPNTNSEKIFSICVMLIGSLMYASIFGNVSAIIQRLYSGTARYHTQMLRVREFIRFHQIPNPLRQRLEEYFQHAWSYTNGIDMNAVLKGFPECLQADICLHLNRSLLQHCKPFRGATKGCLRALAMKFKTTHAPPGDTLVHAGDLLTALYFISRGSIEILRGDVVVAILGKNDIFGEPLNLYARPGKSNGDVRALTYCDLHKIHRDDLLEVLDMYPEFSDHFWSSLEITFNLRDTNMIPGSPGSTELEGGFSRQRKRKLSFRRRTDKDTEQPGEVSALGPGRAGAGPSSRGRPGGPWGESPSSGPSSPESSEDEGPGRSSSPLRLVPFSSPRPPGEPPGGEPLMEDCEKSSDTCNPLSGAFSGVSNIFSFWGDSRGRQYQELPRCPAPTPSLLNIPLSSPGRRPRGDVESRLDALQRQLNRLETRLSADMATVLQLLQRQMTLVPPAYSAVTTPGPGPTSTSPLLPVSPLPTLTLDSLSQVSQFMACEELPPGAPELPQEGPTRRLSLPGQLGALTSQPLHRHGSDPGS

Compound: COc1cc(N)c(Cl)cc1C(=O)NC1CCN(CCCOc2ccc(F)cc2)CC1OC (stereo not shown) [Cisapride, reference compound]
- inhibition at 5 min, 0.001 µM (hERG potassium channel [1]): 8 ± 2%
- inhibition at 5 min, 0.01 µM (hERG potassium channel [1]): 44 ± 1%
- inhibition at 5 min, 0.1 µM (hERG potassium channel [1]): 84 ± 1%

Compound: Fc1ccc(-c2ccc3oc(N4CCN5CCC4CC5)nc3n2)cn1 [Compound I-10]
- Ki (α7 nAChRs): 378 ± 119 nM

Compound: Nc1ccc2c(c1)C(=O)c1cc(N3CCN4CCC3CC4)ccc1-2 [II-5]
- IC50 (hERG potassium channel [2]; [7]): 2.5 ± 0.15 µM
- IC50 (hERG potassium channel [2]; [8]): 2.5 ± 0.15 µM
- inhibition at 5 min, 0.4 µM (hERG potassium channel [1]): 19 ± 1%
- inhibition at 5 min, 2 µM (hERG potassium channel [1]): 42 ± 1%
- inhibition at 5 min, 10 µM (hERG potassium channel [1]): 79 ± 2%
- inhibition at 5 min, 50 µM (hERG potassium channel [1]): 98%

Compound: O=C1c2cc(F)ccc2-c2ccc(N3CCN4CCC3CC4)cc21 [II-6]
- IC50 (hERG potassium channel [2]; [7]): 0.46 ± 0.055 µM
- IC50 (hERG potassium channel [2]; [8]): 0.46 ± 0.055 µM
- inhibition at 5 min, 0.4 µM (hERG potassium channel [1]): 42 ± 2%
- inhibition at 5 min, 2 µM (hERG potassium channel [1]): 80 ± 1%
- inhibition at 5 min, 10 µM (hERG potassium channel [1]): 96 ± 1%
- inhibition at 5 min, 50 µM (hERG potassium channel [1]): 100%
- IC50(hERG)/IC50(α7 nAChR) (hERG potassium channel [3]): 22

Compound: Nc1cccc2c1C(=O)c1cc(N3CCN4CCC3CC4)ccc1-2 [II-14]
- IC50 (hERG potassium channel [2]; [7]): 49.7 ± 15.9 µM
- IC50 (hERG potassium channel [2]; [8]): 49.7 ± 15.9 µM
- inhibition at 5 min, 0.4 µM (hERG potassium channel [1]): 6 ± 1%
- inhibition at 5 min, 2 µM (hERG potassium channel [1]): 20 ± 2%
- inhibition at 5 min, 10 µM (hERG potassium channel [1]): 25 ± 3%
- inhibition at 5 min, 50 µM (hERG potassium channel [1]): 53 ± 4%

Compound: O=C1c2cc(N3CCN4CCC3CC4)ccc2-c2cccc(F)c21 [II-15]
- IC50 (hERG potassium channel [2]; [7]): 0.46 ± 0.011 µM
- IC50 (hERG potassium channel [2]; [8]): 0.46 ± 0.011 µM
- Observation Record (Kunming mice; 43.74 mg/kg): Symptoms of convulsion, and trembling
- Number of Death (Kunming mice; 43.74 mg/kg, 10 mice): 1
- Death Rate (%) (Kunming mice; 43.74 mg/kg, 14 days observation): 10%
- Number of Death (Kunming mice; 48.6 mg/kg, 9 mice): 2
- Death Rate (%) (Kunming mice; 48.6 mg/kg, 14 days observation): 22%
- Observation Record (Kunming mice; 54 mg/kg): Died after convulsion of 20 min; survivors
- Number of Death (Kunming mice; 54 mg/kg, 10 mice): 6
- Death Rate (%) (Kunming mice; 54 mg/kg, 14 days observation): 60%
- Observation Record (Kunming mice; 60 mg/kg): Died after convulsion of 6-10 min; survivors
- Number of Death (Kunming mice; 60 mg/kg, 10 mice): 7
- Death Rate (%) (Kunming mice; 60 mg/kg, 14 days observation): 70%
- Observation Record (Kunming mice; 64.8 mg/kg): Died after convulsion of about 10 s: survivors
- Number of Death (Kunming mice; 64.8 mg/kg, 10 mice): 9
- Death Rate (%) (Kunming mice; 64.8 mg/kg, 14 days observation): 90%
- weights of surviving mice in the observation period (Kunming mice; 14 days observation): increased normally
- inappetence after the administration, then recovered to normal (Kunming mice; all administrated mice): ≤ 1 h
- tissues and organs of dissected dead mice (Kunming mice; all dose groups): no abnormality was found
- LD50 at 14 days ([4]; weighted probit method, read-out: half lethal dosage LD50): 53.7 mg/kg
- LD50 at 14 days ([4]; read-out: 95% confidence limit of LD50): 50.4 to 57.2 mg/kg
- inhibition at 5 min, 0.4 µM (hERG potassium channel [1]): 45 ± 1%
- inhibition at 5 min, 2 µM (hERG potassium channel [1]): 82 ± 1%
- inhibition at 5 min, 10 µM (hERG potassium channel [1]): 97 ± 1%
- inhibition at 5 min, 50 µM (hERG potassium channel [1]): 98 ± 1%
- IC50(hERG)/IC50(α7 nAChR) (hERG potassium channel [3]): 74

- Ki (α7 nAChRs): 456 ± 152 nM
Compound: CN1CC2CN(c3ccc(-c4ccc5c(ccn5CCF)c4)nc3)CC2C1 (stereo not shown) [III-19]

Compound: CN1CC2CN(c3ccc(-c4ccc(OCCF)cc4)nn3)CC2C1 (stereo not shown) [III-24]
- Ki (α7 nAChRs): 445 ± 31.5 nM

Compound: O=S1(=O)c2cc(N3CCN4CCC3CC4)ccc2-c2cccc([18F])c21 [[^18F] ASEM]
- highest brain uptake value (reported) [5]: 7.5 % ID/g
- uptake value in corpus striatum (reported) ([6]; corpus striatum): 6.0 % ID/g
- uptake value in cortex (reported) ([6]; cortex): 7.2 % ID/g
- uptake value in hippocampus (reported) ([6]; hippocampus): 5.0 % ID/g
